PMC7323874, “Vancomycin Resistance Is Overcome by Conjugation of Polycationic Peptides” (Angewandte Chemie (International Ed. in English), 2020)

Experiments:
[1] = Molecular imaging (PET, scintigraphy) and biodistribution of radiolabeled compounds; assay type: in vivo, female Wistar rats; conditions: for scintigraphy, distribution and excretion: i.v.
Protocol: Biodistribution and pharmacokinetic studies
The biodistribution and pharmacokinetic studies were performed with radiolabeled (124I/125I) compounds. For this radiolabeling strategy, a D-tyrosine-modified derivative was synthesized, which enabled the […] substitution. The D-tyrosine was located at the N-terminus of the respective peptide. Vancomycin was radiolabeled without any further structural modification. For radiolabeling, a 1 mM stock solution of phosphate buffer/dimethyl sulfoxide was prepared as described previously by Uhl et al.12 The required amount of radioactive iodine-124 (124I) or rather iodine-125 (125I) was added to a mixture of 25 µl of the stock solution and 25 µl of a phosphate buffer (0.25 mM; pH 7.5). Radiolabeling was performed using the chloramine T method as previously described by Crim et al.13 The labeled compound was purified by semi-preparative HPLC. Analysis was done by radio-HPLC (Agilent 1100 series) using a Chromolith® Performance RP-18e, 100–3 mm column applying a linear gradient of 0.1% TFA in water (eluent A) to 0.1% TFA in acetonitrile (eluent B) within 5 min; flow rate 2 ml/min; UV absorbance λ = 214 nm; γ-detection. The animal trials were approved by the Animal Care and Use committees at the Regierungspräsidium Karlsruhe, Germany. Adult, female, Wistar rats (200 – 250 g) were purchased from Janvier Labs (Le Genest-Saint-Isle, France). The animals were anaesthetized by isoflurane inhalation and appropriate amounts of the 124I/125I labelled peptides, dissolved in 100 µl of 0.9% NaCl were injected into the tail vein. For PET-imaging, an Inveon small animal PET scanner (Siemens) was used. Therefore, the animals were sacrificed 10 min or 60 min after injection of the radiolabeled compound and images were taken afterwards. The scintigraphic images were obtained using a γ-camera (Gamma Imager, Biospace, France). Cumulative images from 0–10 min, 60–70 min and 120–130 min after injection, were taken. For the biodistribution studies, the animals were sacrificed at certain time points, the organs were removed and weighed and the radioactivity of each sample was measured using a Cobra Auto γ-Counter, (Packard Bioscience, USA) in comparison with standards. The tissue-associated activity was related to the total injected dose (ID) and expressed as a percentage of the total injected dose per gram of tissue (%ID/g).
In vivo infection experiments
Animal studies were approved by the local government of Lower Franconia, Germany (approval number 55.2-2532-2-57) and performed in strict accordance with the guidelines for animal care and experimentation of German Animal Protection Law and the DIRECTIVE […]
For the in vivo experiments, we applied S. aureus strain USA300 LAC* lux, which was constructed by transducing the luxABCDE operon from S. aureus Xen29 (PerkinElmer, Waltham, MA, USA) with phage φ11 into S. aureus LAC* (AH2163).14 Overnight cultures of S. aureus USA300 LAC* lux in BHI medium were diluted to a final OD600 nm of 0.05 in 50 ml fresh BHI medium and grown for 3.5 hours at 37 °C. After centrifugation, the cell pellet was resuspended in BHI with 20 % glycerol, aliquoted and stored at -80 °C. For the generation of in vivo infection inocula, aliquots were thawed and washed twice with PBS. The desired bacterial concentration (5 x 10^7 CFU/100 µl) was then adjusted based on the respective OD600 nm values. A sample of the infection inoculum was plated on TSB agar plates in order to control the infection dose.
Female Balb/c mice (6 weeks, Janvier Labs, Le Genest-Saint-Isle, France) were used for all experiments.
Mice were infected by intravenous application of the bacterial inoculum via the tail vein. Treatment started at 2 hours p.i. and following doses were applied every 12 hours. The vancomycin group received 30 mg/kg body weight/ per day, the FU002 group received 56.4 mg/kg body weight/per day, the control group received equal amounts of sterile PBS at the respective time points. The mice were […]

[2] = tested on: Staphylococcus aureus NCTC 10442; test: Blocking experiments with Nα,Nε-diacetyl-Lys-D-Ala-D-Ala in microdilution; assay type: cell-based; conditions: at least 100-fold excess of Nα,Nε-Diacetyl-Lys-D-Ala-D-Ala, pre-incubation minimum 1 hour at room temperature
Protocol: Antimicrobial testing – Microdilution
Antimicrobial testing was performed according to CLSI and EUCAST guidelines in microdilution.8-10 Therefore, all tested substances as well as controls were dissolved in water in different concentrations and serially diluted in MHB II (cation adjusted) on the 96-well plate. A logarithmic growing, overnight culture of the respective bacterial strain was used and adjusted to a McFarland corresponding to 1 × 10^8 cfu/ml. Afterwards the bacterial suspension was diluted to 1 ×10^6 cfu/ml and loaded on the 96-well polypropylene plates, resulting in a final bacterial concentration of 5 × 10^5 cfu/ml. After an incubation at 35 ± 1 °C for 18-20 hours (re-controlled after 24 hours) the MIC was determined as the lowest concentration without visible growth as described previously.11 For direct comparison of the tested substances, all results were calculated in mg/ml and mol/ml afterwards.
For blocking experiments with NΑ,NΕ-DIACETYL-LYS-D-ALA-D-ALA the tested substances were incubated directly on the dilution plate with at least 100-fold excess of Nα,Nε-Diacetyl-Lys-D-Ala-D-Ala for a minimum of 1 hour at room temperature. Afterwards, the procedure was performed as described above. As further control substance, the glycopeptide antibiotic teicoplanin was evaluated. […] Resistance development in S. aureus was determined by passaging bacteria in increasing amounts of vancomycin, FU002 or, as control, fusidic acid. In principle, tubes with twofold dilutions of the compounds in 1 ml Muller Hinton broth were inoculated 1:100 with bacterial suspension. The tubes were then incubated for 24 h at 37 °C under shaking. After each passage, the tube with the highest compound concentration showing bacterial growth was used to inoculate the tubes of the next passage (1:100). The tube with the lowest compound concentration showing no growth was defined as the passage MIC. […]
For the validation of possible side effects provoked by the conjugates, the cytotoxic effect of the lead candidate FU002 on human cells was assessed in a colorimetric viability assay. […]

[3] = 125I-labeled compounds (FU002 as 125I-FU002y), 10 min post injection
[4] = 125I-labeled compounds (FU002 as D-Tyr derivative), 60 min post injection

For `CN[C@H](CC(C)C)C(=O)N[C@H]1C(=O)N[C@@H](CC(N)=O)C(=O)N[C@H]2C(=O)N[C@H]3C(=O)N[C@H](C(=O)N[C@H](C(=O)O)c4cc(O)cc(O)c4-c4cc3ccc4O)[C@H](O)c3ccc(c(Cl)c3)Oc3cc2cc(c3O[C@@H]2O[C@H](CO)[C@@H](O)[C@H](O)[C@H]2O[C@H]2C[C@](C)(N)[C@H](O)[C@H](C)O2)Oc2ccc(cc2Cl)[C@H]1O` [vancomycin], the “PET imaging, distribution and excretion” value ([1]; 124I-labeled compounds, i.v. tail vein, 10 min post injection) was “renal excretion”, the “scintigraphy, distribution and excretion” value [1, 3] was “fast, renal excretion” and the “scintigraphy, distribution and excretion” value [1, 4] was “almost completely excreted and only found in the bladder”. For the same compound, the “effect of D-Ala-D-Ala binding motif on antibiotic activity” value [2] was “suppresses the antibiotic activity”.

With `CC(C)C[C@H](C(=O)N[C@H]1C(=O)N[C@@H](CC(N)=O)C(=O)N[C@H]2C(=O)N[C@H]3C(=O)N[C@H](C(=O)N[C@H](C(=O)O)c4cc(O)cc(O)c4-c4cc3ccc4O)[C@H](O)c3ccc(c(Cl)c3)Oc3cc2cc(c3O[C@@H]2O[C@H](CO)[C@@H](O)[C@H](O)[C@H]2O[C@H]2C[C@](C)(N)[C@H](O)[C@H](C)O2)Oc2ccc(cc2Cl)[C@H]1O)N(C)C(=O)C1CCC(CN2C(=O)CC(SC[C@H](NC(=O)[C@H](CCCNC(=N)N)NC(=O)[C@H](CCCNC(=N)N)NC(=O)[C@H](CCCNC(=N)N)NC(=O)[C@H](CCCNC(=N)N)NC(=O)[C@H](CCCNC(=N)N)NC(=O)[C@@H](N)CCCNC(=N)N)C(N)=O)C2=O)CC1` (stereo partly drawn) [FU002] the “scintigraphy, distribution and excretion” value [1, 3] was “directs in the liver and the kidneys”, the “scintigraphy, distribution and excretion” value [1, 4] was “much slower excretion” and the “biodistribution, organ uptake” value ([1]; 125I-labeled, 10 min post injection, compared with vancomycin) was “much higher organ uptake”. The “biodistribution, retention in organ” value ([1]; 125I-labeled, after 1 hour, compared with vancomycin) was “remains much longer in the corresponding organ” and the “effect of D-Ala-D-Ala binding motif on antibiotic activity” value [2] was “preserves its activity”.
